{
  "source": "paper doi:10.1101/2024.06.10.598391v1",
  "about": "(bioRxiv, 2024)",
  "key": {"[1]": {"tested_on": "secreted tumor necrosis factor-α (TNF-α) of LPS-activated RAW 264.7 Mφs", "experiment": "TNF-α secretion of LPS-activated Mφs", "format": "cell-based, murine", "details": "6 h, ELISA"}, "[2]": {"experiment": "Secondary structure by circular dichroism", "format": "physicochemical", "details": "CD, 40 μM in PBS; for organized secondary structure (α-helix and β-sheet): sum of α-helix and β-sheet; for combined α-helix and random coil content: sum of α-helix and random coil"}, "[3]": {"experiment": "Micelle morphology by negative-stain TEM", "format": "physicochemical", "details": "5 µM; for Morphology: negative-stain TEM (NanoW), 120 kV, categories by L/D; for Cylinder length / Sphere diameter: negative-stain TEM"}, "[4]": {"tested_on": "RAW 264.7 (macrophage-like cells - Mφs)", "experiment": "Cell viability of LPS-treated Mφs by flow cytometry", "format": "cell-based, murine", "details": "for cell viability relative to untreated cells: 10 µM"}, "[5]": {"tested_on": "RAW 264.7 (macrophage-like cells - Mφs)", "experiment": "Micelle association with Mφs by flow cytometry", "format": "cell-based, murine", "details": "5 µM, 1:19 FAM-PA:Non-FAM-PA"}, "[6]": {"tested_on": "RAW 264.7 (macrophage-like cells - Mφs)", "experiment": "Micelle surface attachment and internalization by Mφs, confocal microscopy", "format": "cell-based, murine", "details": "5 µM, 1:19 FAM-PA:Non-FAM-PA, LPS 0.1 µg/mL"}, "[7]": {"details": "LPS-treated (0.1 µg/mL) Mφs, six hours, flow cytometry"}},
  "data": [
    {"substance": "Ac-HSDAVFTDNYTRLRKQMAVKKYLNSILN-CONH2 [VIP, reference compound]", "values": [
      {"measurement": "modulation of TNF-α secretion", "setting": "[1]; 1 µM and 2.5 µM", "result": "No appreciable modulation"},
      {"measurement": "modulation of TNF-α secretion", "setting": "[1]; 5 µM and 10 µM", "result": "significant TNF-α suppression"},
      {"measurement": "organized secondary structure (α-helix and β-sheet)", "setting": "[2]", "result": 49.4, "unit": "%"},
      {"measurement": "Morphology", "setting": "[3]", "result": "lacks any particle structure"},
      {"measurement": "cytotoxicity", "setting": "[4]; LPS-treated (0.1 µg/mL) Mφs, up to 5 µM, six hours, flow cytometry", "result": "Minimal cytotoxicity"}
    ]},
    {"substance": "Ac-NSDLIATDSYTRMRKQVLANKKFHYLVN-NH2 [^SVIP]", "values": [
      {"measurement": "organized secondary structure (α-helix and β-sheet)", "setting": "[2]", "result": 46.6, "unit": "%"},
      {"measurement": "Morphology", "setting": "[3]", "result": "Amorphous aggregates"},
      {"measurement": "viability of treated cells", "setting": "[4]; LPS-treated Mφs, 5 µM, 6 hours (Figure 3a)", "result": "remained high"}
    ]},
    {"substance": "VIP(^SVIP)-KEKEEEEE-CONH2 [Palm2K-VIP-(KE)2E4]", "values": [
      {"measurement": "MFI of micelle-associated Mφs", "setting": "[5]; 6 hours", "result": "greatest Mφ association"},
      {"measurement": "micelle location on/in Mφs", "setting": "[6]; 6 hours", "result": "cell membranes coated"},
      {"measurement": "Morphology", "setting": "[3]", "result": "Spheres + Short/Small Cylinders"},
      {"measurement": "Cylinder length", "setting": "[3]", "result": "20 - 300 nm"},
      {"measurement": "Sphere diameter", "setting": "[3]", "result": "10 - 20 nm"}
    ]},
    {"substance": "VIP(^SVIP)-KEKEEEEE-CONH2 [Palm2K-^SVIP-(KE)2E4]", "values": [
      {"measurement": "Morphology", "setting": "[3]", "result": "Spheres + Short/Small Cylinders"},
      {"measurement": "Cylinder length", "setting": "[3]", "result": "50 - 250 nm"},
      {"measurement": "Sphere diameter", "setting": "[3]", "result": "10 - 20 nm"}
    ]},
    {"substance": "VIP(^SVIP)-KEKEKEKE-CONH2 [Palm2K-VIP-(KE)4]", "values": [
      {"measurement": "modulation of TNF-α secretion", "setting": "[1]; 5 µM and 10 µM", "result": "significant TNF-α suppression"},
      {"measurement": "micelle location on/in Mφs", "setting": "[6]; 1 hour", "result": "only found along the Mφ cell membrane"},
      {"measurement": "Morphology", "setting": "[3]", "result": "Small/Medium Cylinders"},
      {"measurement": "Cylinder length", "setting": "[3]", "result": "100 - 700 nm"},
      {"measurement": "cell viability relative to untreated cells", "setting": "[4]; [7]", "result": "70 - 80%"}
    ]},
    {"substance": "VIP(^SVIP)-KEKEKEKE-CONH2 [Palm2K-^SVIP-(KE)4]", "values": [
      {"measurement": "combined α-helix and random coil content", "setting": "[2]", "result": 41.5, "unit": "%"},
      {"measurement": "Morphology", "setting": "[3]", "result": "Spheres"},
      {"measurement": "Sphere diameter", "setting": "[3]", "result": "10 - 15 nm"}
    ]},
    {"substance": "VIP(^SVIP)-KEKEKEKE-CONH2 [PalmK-VIP-(KE)4]", "values": [
      {"measurement": "micelle location on/in Mφs", "setting": "[6]; 1 hour", "result": "only found along the Mφ cell membrane"},
      {"measurement": "Morphology", "setting": "[3]", "result": "Mostly Large/Long Cylinders"},
      {"measurement": "Cylinder length", "setting": "[3]", "result": "1000 - 9000 nm"},
      {"measurement": "cell viability relative to untreated cells", "setting": "[4]; [7]", "result": "70 - 80%"}
    ]},
    {"substance": "VIP(^SVIP)-KEKEKEKE-CONH2 [PalmK-^SVIP-(KE)4]", "values": [
      {"measurement": "Morphology", "setting": "[3]", "result": "Mostly Large/Long Cylinders"},
      {"measurement": "Cylinder length", "setting": "[3]", "result": "1000 - 9000 nm"}
    ]},
    {"substance": "VIP(^SVIP)-KEKEKKKK-CONH2 [Palm2K-VIP-(KE)2K4]", "values": [
      {"measurement": "combined α-helix and random coil content", "setting": "[2]", "result": 46.5, "unit": "%"},
      {"measurement": "Morphology", "setting": "[3]", "result": "Mostly Spheres"},
      {"measurement": "Sphere diameter", "setting": "[3]", "result": "10 - 15 nm"}
    ]},
    {"substance": "VIP(^SVIP)-KEKEKKKK-CONH2 [Palm2K-^SVIP-(KE)2K4]", "values": [
      {"measurement": "percentage of Mφs associated with fluorophore-labeled micelles", "setting": "[5]; 1 hour", "result": "Mφs preferred to associate"},
      {"measurement": "Morphology", "setting": "[3]", "result": "Small/Medium Cylinders"},
      {"measurement": "Cylinder length", "setting": "[3]", "result": "100 - 400 nm"}
    ]}
  ]
}
